In EP1370263B1, “ANTIBIOTIC PHARMACEUTICAL COMPOSITION WITH LYSERGOL AS BIO-ENHANCER AND METHOD OF TREATMENT” (Council of Scientific and Industrial Research, priority 2002, dated 2003):

Key:
[1] = Transport of antibiotics across freshly isolated gut membrane in U-shaped tubes (absorbency in right arm); assay type: in vitro ADME
Method: We performed the experiments in U-shaped tubes with joint in between, where the freshly isolated gut membrane is fixed. In control tube only antibiotic solution (4ml @ 1mg/ml solution) is poured in the left arm where as in the right arm only water is poured. In the other tube in addition to the antibiotic solution lysergol (4µg @ 1µg/ml) is added.

[2] = tested on: Mycobacterium smegmatis; test: Broth assay, viable cell count: killing action of antibiotic alone and in combination with lysergol; assay type: cell-based, Mycobacterium smegmatis (ATCC 14468)
Method: (§1) The invention is further explained in the form of following embodiments. • 1. Assay for bio-enhancement of anti-infective agents • (a) The minimum inhibitory concentration (MIC) of antibiotic is determined against Escherichia coli (ATCC 10536), Bacillus subtilis (ATCC 6051) and Mycobacterium smegmatis (ATCC 14468) in broth and disc diffusion assay. • (b) The antibiotics at concentrations 1/4, 1/3, 1/2 and equal to MIC are added alone and in combination with the test compound at varying concentrations on disc and in broth to evaluate the comparative inhibition. • (c) These combinations showing significant advantage or higher activity than antibiotic alone in terms of enhanced inhibition of bacterial growth (large inhibition zone in disc diffusion and effectivity of lower concentration in broth assay) are picked up for future testing. • (d) In broth assay the activity is quantified by counting number of viable cells in a given treatment and converted in fold enhancement by combination compared to antibiotic / drug alone in the killing percentage of cells. • (e) The pretreatment assay followed to determine whether the compound is required along with antibiotic to enhance its activity or even its withdrawal after treatment or prior to antibiotic treatment would benefit. For this, the cells are treated with compound for 4 to 8 hours and then washed free of it by centrifugation and washing in sterile water. This is followed by treatment with antibiotic as in steps b to d.
(§2) Bioactivity is experimented with the killing activities of different antibiotics against the bacteria singly and in combination with the test compound Lysergol following the method described above. These experiments are being described in the following examples. […] In all the experiments the Lysergol concentration is kept at 10 µg/ml, unless it is specifically mentioned.
Lysergol mediated enhancement in the killing action of antibiotics against bacterium Mycobacterium smegmatis Table 3: […]

[3] = tested on: Bacillus subtilis; test: as above; assay type: cell-based, Bacillus subtilis (ATCC 6051)
Method: as §1, §2
Lysergol mediated enhancement in the killing action of antibiotics against Gram positive bacterium Bacillus subtilis.

[4] = tested on: Escherichia coli; test: microbe, parasite or virus in culture
Method: The invention is further explained in the form of following embodiments. • 1. […] For this, the cells are treated with compound for 4 to 8 hours and then washed free of it by centrifugation and washing in sterile water. […] These experiments are being described in the following examples. […] In all the experiments the Lysergol concentration is kept at 10 µg/ml, unless it is specifically mentioned.

[5] = tested on: bacteria; test: Growth of bacteria in presence of lysergol alone (killing activity); assay type: cell-based; settings: 10 µg/ml, no antibiotic
Method: as §1, with “For this, the cells are treated with compound for 4 to 8 hours and then washed free of it by centrifugation and washing in sterile water. This is followed by treatment with antibiotic as in steps b to d.” left out

[6] = Escherichia coli, read-out: Survival fraction of viable cells upon treatment with antibiotic alone

Row | Compound | Increase in absorbency [1] | viability at 0.2 µg/mL ([2]; Mycolicibacterium smegmatis, read-out: Survival fraction of viable cells upon treatment with antibiotic alone) [%] | Survival fraction of viable cells upon treatment with antibiotic + lysergol combination ([2]; antibiotic 0.2 µg/ml + lysergol 10 µg/ml) | Fold enhancement in antibiotic activity ([2]; antibiotic 0.2 µg/ml + lysergol 10 µg/ml versus antibiotic alone) | viability at 0.4 µg/mL ([3]; Bacillus subtilis, read-out: Survival fraction of viable cells upon treatment with antibiotic alone) [%] | Survival fraction of viable cells upon treatment with antibiotic + lysergol combination ([3]; antibiotic 0.4 µg/ml + lysergol 10 µg/ml) | Fold enhancement in antibiotic activity ([3]; antibiotic 0.4 µg/ml + lysergol 10 µg/ml versus antibiotic alone) | viability at 10 µg/mL [4, 6] [%] | viability at 20 µg/mL [4, 6] [%] | Fold enhancement in antibiotic activity ([4]; antibiotic 10 µg/ml + lysergol 10 µg/ml versus antibiotic alone) | Fold enhancement in antibiotic activity ([4]; antibiotic 20 µg/ml + lysergol 10 µg/ml versus antibiotic alone) | killing of bacteria grown in presence of the compound as such [5]
1 | CO[C@H]1/C=C/O[C@@]2(C)Oc3c(C)c(O)c4c(O)c(c(/C=N/N5CCN(C)CC5)c(O)c4c3C2=O)NC(=O)/C(C)=C\C=C\[C@H](C)[C@H](O)[C@@H](C)[C@@H](O)[C@@H](C)[C@H](OC(C)=O)[C@@H]1C [Rifampicin] | 0.131 | 45 to 54 | 0.09-0.10 | 4.5-6.0 fold | 8.5 to 9.6 | 0.021-0.028 | 3.0-4.6 fold | 35 to 45 | 25 to 30 | 6-12 fold | 3-5 fold | 
2 | CN1C[C@H](CO)C=C2c3cccc4[nH]cc(c34)C[C@H]21 [Lysergol, 9,10-Didehydro-6-methylergoline-8-[…]-methanol] |  |  |  |  |  |  |  |  |  |  |  | no significant killing
